# Reference: patent US8637677B2, “Organic dicarboxylic acids, salts and preparation method thereof” (Southeast University, priority 2009, dated 2014)
# Tests used:
# [1] = test system: in vitro eye lens of rabbits; assay: resisting oxidative damage to in vitro eye lens of rabbits induced by H2O2 (lens opacification grading); format: cell-based; details: rabbit lens; for Comments (improvement versus model group) / Observation Results + (number of lenses with mild opacity, degree I) / Observation Results ++ (number of lenses with moderate opacity, degree II) / Percentages for different degrees % + Degree (I) / Percentages for different degrees % >++ Degrees(I, II) / Observation Results +++ (number of lenses totally opacified, degree III): 2% H2O2 + 0.02% FeCl3, 24 h culture, sample and BDL 0.5 mmol/L; for Observation Results + (number of lenses with mild opacity, degree I) / Observation Results ++ (number of lenses with moderate opacity, degree II) / Percentages for different degrees % + Degree (I) / Percentages for different degrees % >++ Degrees(I, II) / Observation Results +++ (number of lenses totally opacified, degree III): vitamin C 1 mmol/L; for inhibitory effects on oxidative damage to in vitro eye lens of rabbits induced by H2O2: sample 0.5 mmol/L, table 1
# From the text: (§1) Some typical compounds are selected for the research on the capability of in vitro resisting oxidative damage to crystalline lens induced by H2O2. The experiments are illustrated as follows:
# (§2) Kill rats and rabbits, take out their eyeballs and rinse with saline containing 500 u/mL penicillin, split the eyeball from the posterior to remove eyeball wall and vitreous body, strip off the suspensory ligament, take out the crystalline lens and wash with PBS solution containing 500 u/mL penicillin and 0.5 mg/mL streptomycin for 5 min Before experiment, check with anatomical lens to confirm that there is no opacification or other abnormal condition in the crystalline lens, then place the crystalline lens in the sterilized 12-well plate containing 2 mL DMEM/high glucose (a product from Beijing Thermo Fisher Scientific Biochemical Product Co., Ltd.) sterile culture solution (which contains 100 u/mL penicillin and 0.1 mg/mL streptomycin), add different compounds for screening and pre-culture in a incubator with temperature of 37° C., humidity of 95% and 5% CO2 for 1 h, subsequently add 2 mL DEME culture solution containing H2O2 and FeCl3 (namely, total 4 mL culture solution in each well) (the total concentration of H2O2 in each well is 2% for rabbits, and 5% for rats, and the concentrations of FeCl3 are all 0.02%), culture under the same conditions for 24 hours. The experiments are divided into several groups as below and carried out in batches, with each batch provided with negative control group and model group.
# (§3) A. Negative control group: DMEM culture solution without H2O2.
# (§4) B. Model group (oxidative damage group): DMEM culture solution containing H2O2 and FeCl3.
# (§5) C. Vitamin C group: besides the ingredients of the model group, further containing vitamin C (the final concentration is 1 mmol/L).
# (§6) D. Bendazac lysine (BDL) group (BDL is provided by Zhejiang Shapuaisi Pharmaceutical Co. Ltd., and its purity is more than 98.5%): besides the ingredients of model group, further containing BDL (the final concentration is 0.5 mmol/L).
# (§7) E. Sample group: besides the ingredients of model group, further containing sample (the final concentration is 0.5 mmol/L).
# (§8) Evaluation criteria: according to large amount of experiments on the model group, the ratio between the percentage of different degrees of lens opacification in the groups and the percentage of different degrees of lens opacification in the model group is utilized as the definition, wherein, for slight improvement (√), the percentage of ++ (degrees II, III) should be lower than 67%, and the percentage of + (degree I) should be higher than 33%; for moderate improvement (√√), the percentage of ++(degrees II, III) further decreases; and the percentage of 0 (−) appears; for significant improvement (√√√), the percentage of ++ (degrees II, III) and + (degree I) disappears, and the lens are almost transparent.
# [2] = test system: in vitro eye lens of rats; assay: resisting oxidative damage to in vitro eye lens of rats induced by H2O2 (lens opacification grading); format: cell-based; details: rat lens; for Comments (improvement versus model group) / Observation Results + (number of lenses with mild opacity, degree I) / Observation Results ++ (number of lenses with moderate opacity, degree II) / Observation Results +++ (number of lenses totally opacified, degree III) / Percentages % + Degree (I) / Percentages % >++ Degrees (II, III): 5% H2O2 + 0.02% FeCl3, 24 h culture, sample and BDL 0.5 mmol/L; for Observation Results + (number of lenses with mild opacity, degree I) / Observation Results ++ (number of lenses with moderate opacity, degree II) / Observation Results +++ (number of lenses totally opacified, degree III) / Percentages % + Degree (I) / Percentages % >++ Degrees (II, III): vitamin C 1 mmol/L; for inhibitory effects on oxidative damage to in vitro eye lens of rats induced by H2O2: sample 0.5 mmol/L, summary of table 2
# From the text: as §1, §2, §3, §4, §5, §6, §7
# as §8, with “lens turbidity” for “lens opacification”, “than 72%,” for “than 67%,”, “than 20%;” for “than 33%;”, “improvement (√√)” for “improvement (√√),”, “and +(degree” for “and + (degree”
SMILES,Comments (improvement versus model group) [1],"Observation Results + (number of lenses with mild opacity, degree I) [1]","Observation Results ++ (number of lenses with moderate opacity, degree II) [1]",Percentages for different degrees % + Degree (I) [1] [%],"Percentages for different degrees % >++ Degrees(I, II) [1] [%]",Comments (improvement versus model group) [2],"Observation Results + (number of lenses with mild opacity, degree I) [2]","Observation Results ++ (number of lenses with moderate opacity, degree II) [2]","Observation Results +++ (number of lenses totally opacified, degree III) [2]",Percentages % + Degree (I) [2] [%],"Percentages % >++ Degrees (II, III) [2] [%]","Observation Results +++ (number of lenses totally opacified, degree III) [1]",inhibitory effects on oxidative damage to in vitro eye lens of rabbits induced by H2O2 [1],inhibitory effects on oxidative damage to in vitro eye lens of rats induced by H2O2 [2]
"O=C(O)COc1nn(Cc2ccccc2)c2ccccc12 [BDL, Bendazac lysine, reference compound]",✓,9,3,75,25,✓,30,22,3,54,46,–,–,–
"O=C1O[C@H]([C@@H](O)CO)C(O)=C1O [VC, vitamin C, reference compound]",–,13,16,42,58,–,7,8,3,39,61,2,–,–
"O=C([O-])C(Oc1nn(Cc2ccccc2)c2ccccc12)C(=O)[O-].[Na+].[Na+] [Y1, 2-(1-benzyl-1H-indazole-3-oxyl) malonate disodium]",–,4,3,57,43,✓,4,1,–,80,20,–,not significant,showing inhibitory effects
"O=C([O-])C(Oc1nn(Cc2ccccc2)c2ccccc12)C(=O)[O-].[K+].[K+] [Y2, 2-(1-benzyl-1H-indazole-3-oxyl) malonate dipotassium]",–,2,3,29,71,–,–,3,3,–,100,2,not significant,not significant
"N[C@@H](Cc1c[nH]cn1)C(=O)O.N[C@@H](Cc1c[nH]cn1)C(=O)O.O=C(O)C(Oc1nn(Cc2ccccc2)c2ccccc12)C(=O)O [Y4, 2-(1-benzyl-1H-indazole-3-oxyl) malonate dihistidine]",✓,14,7,67,33,✓,18,3,–,86,14,–,showing inhibitory effects,showing inhibitory effects
"NCCCC[C@H](N)C(=O)O.NCCCC[C@H](N)C(=O)O.O=C(O)C(Oc1nn(Cc2ccccc2)c2ccccc12)C(=O)O [Y5, 2-(1-benzyl-1H-indazole-3-oxyl) malonate dilysine]",–,2,2,33,67,–,1,4,1,17,83,2,not significant,showing inhibitory effects
"O=C([O-])C(Oc1nn(Cc2cccc(F)c2)c2ccccc12)C(=O)[O-].[Na+].[Na+] [Y10, 2-[1-(3-fluoro-benzyl)-1H-indazole-3-oxyl) malonate disodium]",✓,4,1,80,20,✓,47,28,3,60,40,–,showing inhibitory effects,not significant
"NCCCC[C@H](N)C(=O)O.NCCCC[C@H](N)C(=O)O.O=C(O)C(Oc1nn(Cc2cccc(F)c2)c2ccccc12)C(=O)O [Y14, 2-[1-(3-fluoro-benzyl)-1H-indazole-3-oxyl) malonate dilysine]",–,–,–,–,–,✓,10,8,–,56,44,–,–,showing inhibitory effects
"NCCCC[C@H](N)C(=O)O.NCCCC[C@H](N)C(=O)O.O=C(O)C(Oc1nn(Cc2cccc(Cl)c2)c2ccccc12)C(=O)O [Y19, 2-[1-(3-chloro-benzyl)-1H-indazole-3-oxyl]malonate dilysine]",–,–,–,–,100,✓,18,10,4,56,44,3,not significant,showing inhibitory effects
